# Test results taken from patent US20240269302A1, “NANOPARTICLE COMPRISING PEPTIDE-LIPID CONJUGATE FOR DELIVERING OLIGONUCLEOTIDE INTO TARGET CELL AND PHARMACEUTICAL COMPOSITION COMPRISING SAME” (NIBEC CO., LTD., priority 2021, published 2024).
# Test system: KRAS mRNA
# Assay: Reduction of KRAS mRNA by KRAS siRNA delivered into cells, quantitative real-time PCR
# Format: cell-based, human
# Details: H358 cells, 100 nM, 16 hours, qRT-PCR, 18S rRNA as housekeeping gene
# Description: H358 cells were seeded at a density of 70% in a 6-well plate. After 16 hours, cell starvation was performed overnight with DMEM containing 0.5% FBS. The cells were treated with a medium containing nanoparticles comprising KRAS siRNA and a peptide-lipid conjugate at a concentration of 100 nM for 16 hours. As a control, 100 nM of siRNA mixed with Lipofectamine was used.
# Quantitative real-time PCR was performed in the following manner. For mRNA quantification, total RNA was isolated using the Qiagen RNeasy kit. cDNA was synthesized using Verso cDNA kit (Thermo Scientific) using 500 ng RNA. mRNA values were measured with a 7500 Fast Real-Time PCR System (Applied Biosystems) based on SYBR Green.
# 18S rRNA was used as a housekeeping gene (control gene). PCR was performed using reverse-transcribed RNA and 100 ng/μL of sense and antisense primers (total volume 20 μL) were used. 40 cycles were performed and each cycle included denaturation at 95° ° C. for 15 seconds, annealing for 1 minute, and extension at 60° ° C.
substance,measurement,value
"siRNA alone: siRNA that inhibits the expression of KRAS (SEQ ID NO: 19 sense, SEQ ID NO: 20 antisense), without carrier (sense CAGCUAAUUCAGAAUCAUU; antisense AAUGAUUCUGAAUUAGCUG; listed as RNA, chemistry not given here)",KRAS mRNA,no effect
